This note sets out measurements from US20060165766A1, “Method for preparing liposome formulations with a predefined release profile” (priority 2001, published 2006).

Each structure is given as a SMILES string. Values joined by “and” are separate entries in the source; they are usually repeats but may differ in a detail not shown here. Equal entries are not always repeated. Structures can show the parent of a compound that is named as a salt.

Data set [1] can be described thus: Partition coefficient (Kp) octanol/water. In kind it is physicochemical. From the text:
Other parameters that may influence kinetics of release include the lipophilicity of the loaded agent and the liposome trapped volume. The higher the lipophilicity, the faster will be the release rate of the agent from the liposome. The lipophilicity of a compound may be reflected by its partition coefficient (Kp) is between octanol and water.

Data set [2] can be described thus: Osmolality measurements: contribution of amphipathic base to osmotic pressure of salt solutions (aggregation). It counts as physicochemical. Conditions: for % of expected value of osmolality contribution / Level of aggregation / Expected contribution of 25 mM amphipathic base to osmolality (calibrated in DDW and NaCl): 25 mM base; for Expected contribution of 25 mM amphipathic base to osmolality (calibrated in DDW and NaCl): pure water or NaCl solutions; for Osmolality of agent: 25 mM in DDW (pure water); for mOsm versos mM (slope); extent of dissociation: slope of osmolality (mOsm) versus concentration (mM). The protocol:
Level of aggregation of the exemplified agents was evaluated by measuring osmotic pressure. Osmotic pressure is a colrgative property, depending on the actual concentration (particles per unit volume) of a solution. Thus, in case of aggregate formation in a solution, the actual concentration of the solution will be lower than the theoretical concentration of the solution, which will be evident by a lower than expected osmotic pressure.
For osmotic pressure measurements, double distilled water (DDW) obtained using Water ProPlus (Labconco, Kansas City, Mo., USA) was used for all solutions. Osmolality was measured using a 5500 Vapor Pressure Osmometer (Wescor Inc., Logan, Utah, USA) or freezing point osmometer μOSMETIE MicroOsmometer of Precision Systems (atich, MA, USA). Calibration curves of TMN, AO, and BUP osmolality in the range of 10-40 mM in pure water were used to describe the relationship between concentration and osmotic pressure of all compounds.
The effect of salts on the osmotic pressure of the amphipathic base (25 mM) was also examined by comparing the effect of NaCl with that of various ammonium salts. As a control, the osmotic pressure of each salt alone was also measured.

The nature of data set [3]: Kinetics of TMN leakage from egg PC MLV. Conditions: for Leakage from liposomes: 4° C.
Data set [4] can be described thus: Aggregation of BUP and AO with dextran sulfate (DS). In kind it is physicochemical. Conditions: for Mole ratio weak base/DS at which aggregation (precipitation) starts: dextran sulfate. From the text: The dependence of the aggregation process on the loaded molecule was shown by the examples of BUP and AO. […] This however can be modified through the use of sodium salt of dextran sulfate as an additional counter ion. […]

Data set [5] is described as follows: Conductivity measurements of salts. It counts as physicochemical. Conditions: salt 50 mM in DDW. As to the method:
Solutions in concentration range of 0.5-50 mM of NaCl and ammonium salts were prepared in DDW and measured in an “Oyster” conductivity meter (KTech).

In the case of `CC1(C)CC(N)CC(C)(C)N1[O]` [TMN, 2,2,6,6-tetramethylpiperidine-4-amino-1-oxyl], the “Partition coefficient (Kp) octanol/water” value in data set [1] (pH 7, 150 mM (NH4)2SO4) was 0.04 (at pH 7, 150 mM (NH4)2SO4). Besides, the “% of expected value of osmolality contribution” value in data set [2] (ammonium chloride 40 mM) came to 100%; in data set [2] (ammonium chloride 80 mM), 60%; in data set [2] (ammonium citrate 40 mM), 62%; in data set [2] (ammonium citrate 80 mM), 20%; in data set [2] (ammonium glucuronate 40 mM), 95%; in data set [2] (ammonium glucuronate 80 mM), 90%. The “% of expected value of osmolality contribution” value in data set [2] (ammonium phosphate 40 mM) is recorded as 71%; in data set [2] (ammonium phosphate 80 mM) it was 20%; in data set [2] (ammonium sulfate 40 mM), 19%; in data set [2] (ammonium sulfate 80 mM), 0%. For the same compound, the Level of aggregation result in data set [2] (ammonium chloride 40 mM) is listed as “Low”; in data set [2] (ammonium chloride 80 mM), “medium”; in data set [2] (ammonium citrate 40 mM), “Medium”; in data set [2] (ammonium citrate 80 mM) it was “high”; in data set [2] (ammonium glucuronate 40 mM) it was “None”; in data set [2] (ammonium glucuronate 80 mM), “None”. The Level of aggregation entry in data set [2] (ammonium phosphate 40 mM) is “Medium”; in data set [2] (ammonium phosphate 80 mM) it was “high”; in data set [2] (ammonium sulfate 40 mM) it was “High”; in data set [2] (ammonium sulfate 80 mM) it was “complete”. For the same compound, the “Expected contribution of 25 mM amphipathic base to osmolality (calibrated in DDW and NaCl)” value (from here on “Expected contribution”) in data set [2] is listed as 21 mOsm. Further, the Osmolality of agent in data set [2] was 21 mOsm. For the same compound, in data set [2] (NaCl), the “Aggregation in NaCl solutions” value is “lack of aggregate formation”. Moreover, the “Ranking of extent of aggregation with ammonium salts” value in data set [2] (Tables Ia, Ib, Ic) is reported as “ammonium sulfate>ammonium citrate=ammonium phosphate>>ammonium chloride>ammonium glucuronate”. For the same compound, the “Measured contribution of 25 mM base to osmolality” value (“Measured contribution” below) was 21 mOsm in data set [2] (ammonium chloride 40 mM); 12 mOsm in data set [2] (ammonium chloride 80 mM); 13 mOsm in data set [2] (ammonium citrate 40 mM); 5 mOsm in data set [2] (ammonium citrate 80 mM); 20 mOsm in data set [2] (ammonium glucuronate 40 mM); 19 mOsm in data set [2] (ammonium glucuronate 80 mM). Besides, the “Measured contribution” value is listed as 15 mOsm in data set [2] (ammonium phosphate 40 mM), 5 mOsm in data set [2] (ammonium phosphate 80 mM), 4 mOsm in data set [2] (ammonium sulfate 40 mM) and 0 mOsm in data set [2] (ammonium sulfate 80 mM). The Leakage from liposomes entry in data set [3] (ammonium chloride gradient) was “less than 10%”; in data set [3] (ammonium glucuronate gradient) it was “less than 10%”; in data set [3] (ammonium sulfate gradient, until 144 hr), “no TV leakage was observed”. Also, the “Order of encapsulation stability by ammonium salt” value in data set [3] (25° C. and 37° C.) is given as “(NH4)2SO4>>NH4Cl>NH4 glucuronate”.

`N.N.O=S(=O)(O)O` [(NH4)2SO4, ammonium sulfate]: in data set [2], the “mOsm versos mM (slope); extent of dissociation” value (from here on “mOsm versos mM (slope); extent”) was 2.97.

On to `CCCCN1CCCCC1C(=O)Nc1c(C)cccc1C` (stereo not drawn) [BUP, bupivacaine], for which, in data set [1] (pH 6, 250 mM (NH4)2SO4), the “Partition coefficient (Kp) octanol/water” value is 0.35 (at pH 6, 250 mM (NH4)2SO4). In data set [4] (DS 10,000 Da), the “Ratio at which aggregation reaches a plateau” value was 50 nmole AO or BUP per 1 mmole DS. Also, the “Mole ratio weak base/DS at which aggregation (precipitation) starts” value in data set [4] amounted to 1.0. Besides, the “% of expected value of osmolality contribution” value is 97% in data set [2] (ammonium chloride 40 mM); 100% in data set [2] (ammonium chloride 80 mM); 100% in data set [2] (ammonium citrate 40 mM); 91% in data set [2] (ammonium citrate 80 mM); 100% in data set [2] (ammonium glucuronate 40 mM); 100% in data set [2] (ammonium glucuronate 80 mM). The “% of expected value of osmolality contribution” value in data set [2] (ammonium phosphate 40 mM) is given as 97%; in data set [2] (ammonium phosphate 80 mM) it was 84%; in data set [2] (ammonium sulfate 40 mM), 97%; in data set [2] (ammonium sulfate 80 mM) it was 88%. For the same compound, the Level of aggregation result in data set [2] (ammonium chloride 80 mM) was “None//None”; in data set [2] (ammonium citrate 80 mM), “None”; in data set [2] (ammonium glucuronate 80 mM) it was “None//None”; in data set [2] (ammonium phosphate 80 mM) it was “None//|Low”; in data set [2] (ammonium sulfate 80 mM), “None”. For the same compound, the “Expected contribution” value in data set [2] was 32±5 mOsm and 32 mOsm. Further, the Osmolality of agent in data set [2] amounted to 32 mOsm. The “Measured contribution” value in data set [2] (ammonium chloride 40 mM) was 31 mOsm; in data set [2] (ammonium chloride 80 mM) it was 30 mOsm and 32 mOsm; in data set [2] (ammonium citrate 40 mM), 32 mOsm; in data set [2] (ammonium citrate 80 mM), 25 mOsm and 29 mOsm; in data set [2] (ammonium glucuronate 40 mM), 33 mOsm; in data set [2] (ammonium glucuronate 80 mM) it was 31 mOsm and 32 mOsm. Also, the “Measured contribution” value was 30 mOsm in data set [2] (ammonium phosphate 40 mM); 30 mOsm and 27 mOsm in data set [2] (ammonium phosphate 80 mM); 31 mOsm in data set [2] (ammonium sulfate 40 mM); 29 mOsm and 28 mOsm in data set [2] (ammonium sulfate 80 mM).

On to `[Cl-].[Na+]` [NaCl], for which, in data set [2], the “mOsm versos mM (slope); extent” value is on record as 2.00.

For `Cl.N` [NH4Cl, Ammonium chloride], the “mOsm versos mM (slope); extent” value in data set [2] is 1.96.

Regarding `N.N.N.O=C(O)CC(O)(CC(=O)O)C(=O)O` [(NH4)3 citrate, ammonium citrate, tribasic], the Conductivity in data set [5] stood at 11.96. The “mOsm versos mM (slope); extent” value in data set [2] is 3.45.

On to `N.N.O=P(O)(O)O` [(NH4)2HPO4, ammonium phosphate, dibasic], for which the “mOsm versos mM (slope); extent” value in data set [2] was 2.83.

Consider `N.O=C[C@H](O)[C@@H](O)[C@H](O)[C@H](O)C(=O)O` [NH4 glucuronate, Ammonium glucuronate], for which the Conductivity in data set [5] is 3.88 mS/cm. Further, the “mOsm versos mM (slope); extent” value in data set [2] came to 1.62.

Take `CN(C)c1ccc2cc3ccc(N(C)C)cc3nc2c1` [AO, Acridine orange hemi(zinc chloride) salt]: the “Partition coefficient (Kp) octanol/water” value in data set [1] (pH 5.5, 120 mM (NH4)2SO4) is reported as 9.00 (at pH 5.5, 120 mM (NH4)2SO4). The “Ratio at saturation of precipitation” value is reported as 40 in data set [4] (DS 8,000 Da) and 50 in data set [4] (DS 10,000 Da). Also, in data set [4] (DS 10,000 Da), the “Ratio at which aggregation reaches a plateau” value is listed as 50 nmole AO or BUP per 1 mmole DS. In data set [4], the “Mole ratio weak base/DS at which aggregation (precipitation) starts” value worked out at 1. The “% of expected value of osmolality contribution” value was determined as 100% in data set [2] (ammonium chloride 40 mM); 100% in data set [2] (ammonium chloride 80 mM); 96% in data set [2] (ammonium citrate 40 mM); 90% in data set [2] (ammonium citrate 80 mM); 100% in data set [2] (ammonium glucuronate 40 mM); 100% in data set [2] (ammonium glucuronate 80 mM). Also, the “% of expected value of osmolality contribution” value in data set [2] (ammonium phosphate 40 mM) is reported as 92%; in data set [2] (ammonium phosphate 80 mM) it was 79%; in data set [2] (ammonium sulfate 40 mM) it was 94%; in data set [2] (ammonium sulfate 80 mM) it was 85%. In addition, the Level of aggregation entry in data set [2] (ammonium chloride 80 mM) is listed as “None//None”; in data set [2] (ammonium citrate 80 mM), “Low”; in data set [2] (ammonium glucuronate 80 mM), “None//None”; in data set [2] (ammonium sulfate 80 mM) it was “Low”. Also, in data set [2], the “Expected contribution” value is 48±4 mOsm and 48 mOsm. In addition, the Osmolality of agent in data set [2] was 48 mOsm. Besides, the “Measured contribution” value in data set [2] (ammonium chloride 40 mM) was 49 mOsm; in data set [2] (ammonium chloride 80 mM), 51 mOsm and 48 mOsm; in data set [2] (ammonium citrate 40 mM), 46 mOsm; in data set [2] (ammonium citrate 80 mM), 43 mOsm; in data set [2] (ammonium glucuronate 40 mM), 48 mOsm; in data set [2] (ammonium glucuronate 80 mM), 50 mOsm and 48 mOsm. Also, the “Measured contribution” value in data set [2] (ammonium phosphate 40 mM) is 44 mOsm; in data set [2] (ammonium phosphate 80 mM), 41 mOsm and 38 mOsm; in data set [2] (ammonium sulfate 40 mM) it was 45 mOsm; in data set [2] (ammonium sulfate 80 mM), 44 mOsm and 41 mOsm.
